In patent US20220089575A1, “FARNESOID X RECEPTOR AGONISTS AND USES THEREOF” (Metacrine, Inc., priority 2017, published 2022):

Each compound was assayed against T1, hFXR (Homo sapiens, UniProt Q96RI1) (assay: In Vitro FXR Assay (TK): TK-ECRE-luc reporter in transfected CV-1 cells). Conditions: 18 hrs, luminescence, maximum efficacy of <25% of the Fexarmine control classified as '+'.
T1 construct: expressed in transfected cells; host or cells: CV-1 cells
T1 sequence (Q96RI1 1-486): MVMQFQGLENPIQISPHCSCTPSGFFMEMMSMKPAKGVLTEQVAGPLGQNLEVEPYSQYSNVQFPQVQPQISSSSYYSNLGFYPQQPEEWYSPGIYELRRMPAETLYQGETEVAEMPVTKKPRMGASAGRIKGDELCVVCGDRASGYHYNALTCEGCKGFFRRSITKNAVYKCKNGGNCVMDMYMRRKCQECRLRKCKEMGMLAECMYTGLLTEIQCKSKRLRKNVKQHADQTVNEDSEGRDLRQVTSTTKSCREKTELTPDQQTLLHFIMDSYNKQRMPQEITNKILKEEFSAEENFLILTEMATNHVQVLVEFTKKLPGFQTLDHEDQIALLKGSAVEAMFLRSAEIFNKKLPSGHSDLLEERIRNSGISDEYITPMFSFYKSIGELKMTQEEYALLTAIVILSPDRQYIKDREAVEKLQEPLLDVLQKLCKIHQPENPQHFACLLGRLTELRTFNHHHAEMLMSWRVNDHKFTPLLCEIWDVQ
T1 sequence (P19793 1-462 partner): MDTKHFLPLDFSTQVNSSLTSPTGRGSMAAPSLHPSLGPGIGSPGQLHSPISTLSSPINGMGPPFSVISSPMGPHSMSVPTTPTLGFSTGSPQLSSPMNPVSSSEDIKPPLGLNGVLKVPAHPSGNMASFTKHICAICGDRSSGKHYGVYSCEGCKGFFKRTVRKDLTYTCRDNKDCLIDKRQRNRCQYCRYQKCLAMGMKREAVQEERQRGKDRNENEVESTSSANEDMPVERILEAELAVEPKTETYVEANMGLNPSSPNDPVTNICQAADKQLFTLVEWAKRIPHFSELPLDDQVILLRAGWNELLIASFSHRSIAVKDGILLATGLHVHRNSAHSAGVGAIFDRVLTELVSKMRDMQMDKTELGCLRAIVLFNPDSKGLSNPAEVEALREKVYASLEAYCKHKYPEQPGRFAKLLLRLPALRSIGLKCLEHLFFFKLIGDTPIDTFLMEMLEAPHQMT
Format: cell-based
Summary of the method: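 Transiently transfected monkey CV-1 cells (hFXR, hRXR, TK-ECRE-luciferase, YFP control plasmid), held in stripped-serum DMEM, received compound dilutions from DMSO for 18 h at 37 °C. Activity was taken from luminescence of the cell lysates.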
With `COc1ccc([C@H]2CC[C@H](CN(c3cc(-c4cnn(C(C)C)c4)ccn3)C(=O)[C@H]3CC[C@H](NC(=O)COC(C)=O)CC3)CC2)cc1C` [Compound 26.34, 2-((trans-4-((4-(1-Isopropyl-1H-pyrazol-4-yl)pyridin-2-yl)((trans-4-(4-methoxy-3-methylphenyl)cyclohexyl)methyl)carbamoyl)cyclohexyl)amino)-2-oxoethyl acetate] the EC50 was no more than 0.25 µM.
With `COc1ccc([C@H]2CC[C@H](CN(c3cc(-c4cnn(C(C)C)c4)ccn3)C(=O)[C@H]3CC[C@H](NC(=O)CO)CC3)CC2)cc1C` [Compound 26.35, trans-4-(2-Hydroxyacetamido)-N-(4-(1-isopropyl-1H-pyrazol-4-yl)pyridin-2-yl)-N-((trans-4-(4-methoxy-3-methylphenyl)cyclohexyl)methyl) cyclohexanecarboxamide] the EC50 was no more than 0.25 µM.
In the case of `CNC(=O)N[C@H]1CC[C@H](C(=O)N(C[C@H]2CC[C@H](c3ccc(OC)c(C)c3)CC2)c2cccc(-c3cnc(C4CC4)s3)c2)CC1` [Compound 26.36, trans-N-(3-(2-Cyclopropylthiazol-5-yl)phenyl)-N-((trans-4-(4-methoxy-3-methylphenyl)cyclohexyl)methyl)-4-(3-methylureido)cyclohexanecarboxamide], the EC50 is reported as no more than 0.25 µM.
In the case of `CNC(=O)N[C@H]1CC[C@H](C(=O)N(C[C@H]2CC[C@H](c3ccc(OC)c(C)c3)CC2)c2cccc(-c3cnn(C4CC4)c3)c2)CC1` [Compound 26.37, trans-N-(3-(1-Cyclopropyl-1H-pyrazol-4-yl)phenyl)-N-((trans-4-(4-methoxy-3-methylphenyl)cyclohexyl)methyl)-4-(3-methylureido)cyclohexanecarboxamide], the EC50 is reported as no more than 0.25 µM.
With `COc1ccc([C@H]2CC[C@H](CN(c3cccc(-c4cnc(C5CC5)s4)c3)C(=O)[C@H]3CC[C@H](NC(=O)C(C)(C)O)CC3)CC2)cc1C` [Compound 27, trans-N-(3-(2-Cyclopropylthiazol-5-yl)phenyl)-4-(2-hydroxy-2-methylpropanamido)-N-((trans-4-(4-methoxy-3-methylphenyl)cyclohexyl)methyl)cyclohexanecarboxamide] the EC50 was no more than 0.25 µM.
`COc1ccc([C@H]2CC[C@H](CN(c3cccc(-c4cnc(C5CC5)s4)c3)C(=O)[C@H]3CC[C@H](NC(=O)C(C)O)CC3)CC2)cc1C` (stereo partly drawn) [Compound 27.01, trans-N-(3-(2-Cyclopropylthiazol-5-yl)phenyl)-4-(2-hydroxypropanamido)-N-((trans-4-(4-methoxy-3-methylphenyl)cyclohexyl)methyl) cyclohexanecarboxamide] gave an EC50 of no more than 0.25 µM.
`COc1ccc([C@H]2CC[C@H](CN(c3cccc(-c4cnc(C5CC5)s4)c3)C(=O)[C@H]3CC[C@H](NC(=O)C4COC4)CC3)CC2)cc1C` [Compound 27.02, N-(trans-4-((3-(2-Cyclopropylthiazol-5-yl)phenyl)((trans-4-(4-methoxy-3-methylphenyl)cyclohexyl)methyl)carbamoyl)cyclohexyl)oxetane-3-carboxamide] was tested, and the EC50 was no more than 0.25 µM.
Compound `COc1ccc([C@H]2CC[C@H](CN(c3cccc(-c4cnc(C5CC5)s4)c3)C(=O)[C@H]3CC[C@H](NC(=O)Cn4ccnc4)CC3)CC2)cc1C` [Compound 27.03, trans-4-(2-(1H-Imidazol-1-yl)acetamido)-N-(3-(2-cyclopropylthiazol-5-yl)phenyl)-N-((trans-4-(4-methoxy-3-methylphenyl)cyclohexyl)methyl)cyclohexanecarboxamide] has an EC50 of 0.25 to 1 µM.
For `COc1ccc([C@H]2CC[C@H](CN(c3cccc(-c4cnc(C5CC5)s4)c3)C(=O)[C@H]3CC[C@H](NC(=O)Cc4ncc[nH]4)CC3)CC2)cc1C` [Compound 27.04, trans-4-(2-(1H-Imidazol-2-yl)acetamido)-N-(3-(2-cyclopropylthiazol-5-yl)phenyl)-N-((trans-4-(4-methoxy-3-methylphenyl)cyclohexyl)methyl)cyclohexanecarboxamide], the EC50 was no more than 0.25 µM.
For `COc1ccc([C@H]2CC[C@H](CN(c3cccc(-c4cnc(C5CC5)s4)c3)C(=O)[C@H]3CC[C@H](NC(=O)C4CN(C)C4)CC3)CC2)cc1C` [Compound 27.05, N-(trans-4-((3-(2-Cyclopropylthiazol-5-yl)phenyl)((trans-4-(4-methoxy-3-methylphenyl)cyclohexyl)methyl)carbamoyl)cyclohexyl)-1-methylazetidine-3-carboxamide], the EC50 was no less than 1 µM.
Compound `COc1ccc([C@H]2CC[C@H](CN(c3cccc(-c4cnc(C5CC5)s4)c3)C(=O)[C@H]3CC[C@H](NC(=O)C4CNC4)CC3)CC2)cc1C` [Compound 27.06, N-(trans-4-((3-(2-Cyclopropylthiazol-5-yl)phenyl)((trans-4-(4-methoxy-3-methylphenyl)cyclohexyl)methyl)carbamoyl)cyclohexyl)azetidine-3-carboxamide] has an EC50 of no less than 1 µM.
`COc1ccc([C@H]2CC[C@H](CN(c3cccc(-c4cnc(C5CC5)s4)c3)C(=O)[C@H]3CC[C@H](NC(=O)OCCO)CC3)CC2)cc1C` [Compound 28, 2-Hydroxyethyl (trans-4-((3-(2-cyclopropylthiazol-5-yl)phenyl)((trans-4-(4-methoxy-3-methylphenyl)cyclohexyl)methyl)carbamoyl)cyclohexyl)carbamate] showed an EC50 of no more than 0.25 µM.
For `COc1ccc([C@H]2CC[C@H](CN(c3cccc(-c4cnn(C(C)C)c4)c3)C(=O)[C@H]3CC[C@H](NCC(=O)O)CC3)CC2)cc1C` [Compound 29, 2-((trans-4-((3-(1-Isopropyl-1H-pyrazol-4-yl)phenyl)((trans-4-(4-methoxy-3-methylphenyl)cyclohexyl)methyl)carbamoyl)cyclohexyl)amino)acetic Acid], the EC50 was no less than 1 µM.
In the case of `COc1ccc([C@H]2CC[C@H](CN(c3cccc(-c4cnn(C5CC5)c4)c3)C(=O)[C@H]3CC[C@H](NC(=O)C4CC(OC)C4)CC3)CC2)cc1C` (stereo partly drawn) [Compound 30, trans-N-(3-(1-Cyclopropyl-1H-pyrazol-4-yl)phenyl)-N-((trans-4-(4-methoxy-3-methylphenyl)cyclohexyl)methyl)-4-(3-methoxycyclobutanecarboxamido)cyclohexanecarboxamide], the EC50 is reported as no more than 0.25 µM.
`COc1ccc([C@H]2CC[C@H](CN(c3cccc(-c4cnn(C5CC5)c4)c3)C(=O)[C@H]3CC[C@H](NC(=O)C4CCC4)CC3)CC2)cc1C` [Compound 30.01, trans-4-(Cyclobutanecarboxamido)-N-(3-(1-cyclopropyl-1H-pyrazol-4-yl)phenyl)-N-((trans-4-(4-methoxy-3-methylphenyl)cyclohexyl)methyl) cyclohexanecarboxamide] was tested, and the EC50 was no more than 0.25 µM.
Work on `COc1ccc([C@H]2CC[C@H](CN(c3cc(-c4coc(C5CC5)n4)ccn3)C(=O)[C@H]3CC[C@H](NC(=O)C4CCC4)CC3)CC2)nc1C` [Compound 30.02, trans-4-(cyclobutanecarboxamido)-trans-(4-(2-cyclopropyloxazol-4-yl)pyridine-2-yl)-N-((trans-4-(5-methoxy-6-methylpyridin-2-yl)cyclohexyl)methyl) cyclohexanecarboxamide] yielded an EC50 of no more than 0.25 µM.
`COc1ccc([C@H]2CC[C@H](CN(c3cc(-c4coc(C5CC5)n4)ccn3)C(=O)[C@H]3CC[C@H](NC(=O)C4CC(OC)C4)CC3)CC2)nc1C` (stereo partly drawn) [Compound 30.03, trans-N-(4-(2-Cyclopropyloxazol-4-yl)pyridin-2-yl)-N-((trans-4-(5-methoxy-6-methylpyridin-2-yl)cyclohexyl)methyl)-4-(3-methoxycyclobutanecarboxamido) cyclohexanecarboxamide] showed an EC50 of no more than 0.25 µM.
With `COc1ccc([C@H]2CC[C@H](CN(c3cc(-c4coc(C5CC5)n4)ccn3)C(=O)[C@H]3CC[C@H](CNC(=O)C4CCC4)CC3)CC2)nc1C` [Compound 30.04, trans-4-(Cyclobutanecarboxamidomethyl)-N-(4-(2-cyclopropyloxazol-4-yl)pyridin-2-yl)-N-((trans-4-(5-methoxy-6-methylpyridin-2-yl)cyclohexyl)methyl) cyclohexanecarboxamide] the EC50 was no more than 0.25 µM.
`COc1ccc([C@H]2CC[C@H](CN(c3cc(-c4coc(C5CC5)n4)ccn3)C(=O)[C@H]3CC[C@H](CNC(=O)C4CC(N(C)C)C4)CC3)CC2)nc1C` (stereo partly drawn) [Compound 30.05, trans-N-(4-(2-Cyclopropyloxazol-4-yl)pyridin-2-yl)-4-((3-(dimethylamino)cyclobutanecarboxamido)methyl)-N-((trans-4-(5-methoxy-6-methylpyridin-2-yl)cyclohexyl)methyl) cyclohexanecarboxamide] gave an EC50 of no less than 1 µM.
